These results are taken from patent US8709445B2, “Vaccination with killed but metabolically active (KBMA) protozoans with toll-like receptor agonists” (priority 2007, dated 2014).

Molecules are shown by their SMILES. Entries after “also recorded” stand apart in the source; their conditions may differ.

In assay [1] the test system is Leishmania chagasi. The experiment in a line: In vitro luciferase assay of parasite metabolic activity after S-59 and UVA. It is filed as cell-based. The procedure: The L. chagasi strain (MHOM/BR/00/1669), originally isolated from a patient with visceral leishmaniasis in Northeast Brazil, was maintained by serial intracardiac injection in outbred male golden hamsters. Virulent amastigotes were isolated from hamster spleens removed from animals infected approximately 3 months prior to sacrifice. Promastigotes were cultured in hemoflagellate minimal essential medium (HOMEM) at 26° C. and were used for vaccination or challenge within one month of harvest from the hamsters. Killed But Metabolically Active (KBMA) promastigotes were prepared by incubating late-log or stationary phase organisms in amotosalen (S-59) 100 nM for one hour while shaking at room temperature, followed by cross-linking of DNA using UVA irradiation of aliquots of 2 ml of cells in 6 well plates in an Intercept Illuminator (Cerus Corporation). Radiation dose was 5.4 J/cm^2. Heat-killed organisms were prepared by incubating in a 100° C. bath for 10 minutes. Transgenic firefly luciferase expressing L. chagasi and L. major were kindly provided by Dr. Beverley. For CFSE-based flow cytometry experiments, promastigotes were stained with CFSE at 5 μM and, shaken at 37° C. for 10 minutes. Parasites were washed three times with PBS and then cultured at an initial concentration of 5×10^6 per ml in HOMEM for in vitro experiments or injected into mice in 200 μL, of PBS at a concentration of 5×10^8 per ml.
Serial measures of parasite luciferase activity were made using a Sirius Single Tube Luminometer (Berthold Detection Systems). Aliquots of cultured organisms were taken daily and combined with 5× reporter lysis buffer per the manufacturer's instructions, and frozen at −80° C. All samples were then snap-thawed at 37° C. on the day of assay. 50 μl samples from each aliquot were combined with 100 μl of luciferin and luminescence was quantified with the luminometer in relative luminsescence units (RLU).
A mouse visceral leishmaniasis model employing Leishmania chagasi expressing firefly luciferase was used to test the susceptibility of a eukaryotic pathogen to in vitro inactivation?). L. chagasi were treated with varying doses of S-59 for 1 hour and then exposed to 5.4 J/cm2 UVA using a commercial illuminator which delivers tightly metered UVA doses to a shaking flask of organisms. This UVA dose was determined based on prior experience with Listeria. After irradiation with UVA, parasites were kept in culture and assayed at various time points for luciferase expression as a measure of metabolic activity. […] To determine if the S-59 induced decline in luciferase activity was associated with an inability to replicate, live L. chagasi promastigotes were stained with the intracellular dye CFSE and monitored for 1 week in culture.

For assay [2], the system named is L. chagasi promastigotes. The experiment in a line: CFSE flow cytometry of promastigote replication in culture. Particulars: 100 nM S-59 and 5.4 Joules/cm^2 UVA; days 1-7 in culture. It is filed as cell-based, Leishmania chagasi. As to the method: The L. chagasi strain (MHOM/BR/00/1669), originally isolated from a patient with visceral leishmaniasis in Northeast Brazil, was maintained by serial intracardiac injection in outbred male golden hamsters. Virulent amastigotes were isolated from hamster spleens removed from animals infected approximately 3 months prior to sacrifice. Promastigotes were cultured in hemoflagellate minimal essential medium (HOMEM) at 26° C. and were used for vaccination or challenge within one month of harvest from the hamsters. Killed But Metabolically Active (KBMA) promastigotes were prepared by incubating late-log or stationary phase organisms in amotosalen (S-59) 100 nM for one hour while shaking at room temperature, followed by cross-linking of DNA using UVA irradiation of aliquots of 2 ml of cells in 6 well plates in an Intercept Illuminator (Cerus Corporation). Radiation dose was 5.4 J/cm^2. […]
A mouse visceral leishmaniasis model employing Leishmania chagasi expressing firefly luciferase was used to test the susceptibility of a eukaryotic pathogen to in vitro inactivation?). […] This UVA dose was determined based on prior experience with Listeria. […] To determine if the S-59 induced decline in luciferase activity was associated with an inability to replicate, live L. chagasi promastigotes were stained with the intracellular dye CFSE and monitored for 1 week in culture.

In assay [3] the test system is L. chagasi. It is filed as in vivo, Leishmania chagasi. Particulars: for protection (reduction in liver parasite load): pilot experiment, combination of subcutaneous KBMA-LC and topically applied TLR agonist.
Method: On the day prior to each vaccination, mice were anesthetized by intraperitoneal injection of 0.2 ml a solution of ketamine 9.1 mg/ml and xylazine 0.73 mg/ml. A 2×3 cm patch of fur in the dorsal cervical area was shaved, and 50 mg of adjuvant cream—either imiquimod 5% cream or appropriate vehicle (3M Pharmaceuticals)—was applied topically to the shaved area. On the day of immunization, mice were anesthetized as above. Unfractionated late-log to stationary phase promastigotes (live or KBMA) were spun at 2000 g for 10 minutes, resuspended in PBS, counted on a Neubauer hemocytometer, and volume-adjusted to a final concentration of 10^8 organisms/ml. One hundred micoliters of the appropriate parasite suspension (10^7 organisms) or 100 μl of PBS for controls was subcutaneously injected into the dorsal-cervical area of anesthetized mice using a 28-gauge needle. Adjuvant cream was then applied at the shaved skin site as above. On the day after immunization, adjuvant cream was once again applied topically as above on unanesthetized mice. For each experiment, mice were immunized three times at two-week intervals. Two weeks after the final immunization, mice were challenged by intravenous injection with 10^7 unfractionated late-log to stationary phase promastigotes in 0.2 ml of PBS.
Vaccinated mice were sacrificed by CO2 inhalation 4 weeks after intravenous challenge. Livers and spleens were weighed. Impression smears on glass slides were made from dissected spleen and liver tissue and were then methanol-fixed and amastigotes were detected with Giemsa stain. Organ parasite load was scored by direct microscopy and rendered in Leishman-Donavan Units (LDU), defined as number of parasites divided by number of mammalian cells multiplied by the organ mass in milligrams. At least 500 mammalian cells or 500 parasites were counted by a scorer blinded to the vaccination groups.
Assay [4] has as its system splenocytes. The experiment in a line: Luminex cytokine production in splenocytes from immunized mice. It is filed as in vivo, BALB/c mice.
Method: FIG. 11C: Luminex quantitation of cytokine production in splenocytes from L. chagasi immunized BALB/c mice with or without adjuvant 5% imiquimod. Mice were immunized three times at two week as in FIG. 10. Two weeks after the final vaccination, animals were sacrificed and 10^6 splenocytes from each were cultured for 66 hours in either in the presence of live L. chagasi. Supernatants from these cultures were frozen and then subsequently thawed and analyzed by the luminex method using antibodies and antibody coated beads specific for the indicated cyotokines. Bars show concentration of the relevant cytokine in pg/ml+/−SEM.
In a parallel experiment, groups of mice were vaccinated and boosted twice as described above. Splenocytes were harvested from these animals 2 weeks after the third vaccination. Splenocytes were then stimulated with either live LC promastigotes or soluble L. chagasi antigen (SLA) for 66 hours in culture and supernatants were harvested.

Regarding `Cc1oc2c(C)c3oc(=O)cc(C)c3cc2c1COCCN` [S-59, amotosalen], in assay [1] (10^7 promastigotes, 100 nM S-59 and 5.4 Joules/cm^2 UVA), the “time by which all detectable metabolic activity was abolished” value is given as not above 3 weeks. Further, in assay [1] (100 nm S-59 and UVA, culture inoculated at 10^7 per ml), the “luciferase activity by day 21” value was “approaches baseline luminescence from PBS”. For the same molecule, the “effect of higher doses of S-59 on luciferase activity” value in assay [1] (doses higher than 100 nM, with UVA, data not shown) is “more rapid decline in luciferase activity”. For the same molecule, the “S-59 dose leading to breakthrough outgrowth of parasites” value in assay [1] (with 5.4 J/cm2 UVA, data not shown) was “lower than 50 nM”. Moreover, the “replication of CFSE stained promastigotes (per parasite fluorescence)” value in assay [2] is “no such diminution; also recorded: arrests replication”.

In the case of `CC(C)Cn1cnc2c(N)nc3ccccc3c21` [imiquimod, 1-isobutyl-1H-imidazo[4,5-c]quinolin-4-amine], the “effect of adjuvant only” value in assay [3] (Example 3, imiquimod 5% without whole cell vaccine (PBS)) is given as “trend towards a protective effect”. Also, the “effect of adjuvant cream compared to control vehicle cream” value in assay [3] (Example 3, topical 5% cream in each vaccination group) is “additional protection”. The “protection (reduction in liver parasite load)” value in assay [3] is 68%. Moreover, in assay [4] (imiquimod 5% with whole cell vaccines), the “pattern of cytokine expression, whole cell vaccines with adjuvant versus vehicle” value was “increased IFN-γ but decreased IL-10, IL-4, and IL-5”. Moreover, the “cytokine production, PBS with adjuvant versus PBS with vehicle” value in assay [4] (imiquimod 5% without whole cell vaccine) was “no increase in cytokine production”.

For `CCOCc1nc2c(N)nc3ccccc3c2n1CC(C)(C)O` [resiquimod, 4-Amino-2-(ethoxymethyl)-a,a-dimethyl-1H-imidazo[4,5-c]quinoline-1-ethanol], in assay [3], the “protection (reduction in liver parasite load)” value was determined as 87%.
